The source of these data is ChEMBL document CHEMBL5291721, “A preclinical secondary pharmacology resource illuminates target-adverse drug reaction associations of marketed drugs” (Nat Commun, 2023).

Targets include D(1A) dopamine receptor (Homo sapiens, UniProt P21728); Histamine H3 receptor (Homo sapiens, UniProt Q9Y5N1); Mu-type opioid receptor (Homo sapiens, UniProt P35372).
In experiment [1] the target is Vascular endothelial growth factor receptor 2 (Homo sapiens, UniProt P35968). Type of experiment: functional.
Experiment [2] addresses Sodium-dependent serotonin transporter (Homo sapiens, UniProt P31645).
The target of another experiment is T1, Adenosine receptor A3 (Homo sapiens, UniProt P0DMS8).
T1 sequence (P0DMS8 whole entry): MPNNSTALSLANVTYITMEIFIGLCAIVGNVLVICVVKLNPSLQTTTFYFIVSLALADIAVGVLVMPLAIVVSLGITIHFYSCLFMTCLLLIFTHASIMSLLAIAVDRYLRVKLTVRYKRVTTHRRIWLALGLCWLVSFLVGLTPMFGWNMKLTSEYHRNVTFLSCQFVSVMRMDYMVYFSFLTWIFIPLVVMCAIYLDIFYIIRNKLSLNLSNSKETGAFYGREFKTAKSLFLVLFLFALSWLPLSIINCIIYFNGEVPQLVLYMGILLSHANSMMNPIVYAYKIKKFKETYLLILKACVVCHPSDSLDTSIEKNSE

Another experiment concerns the target Acetylcholinesterase (Homo sapiens, UniProt P22303). In kind it is functional.
Experiment [3] concerns the target T2, Prostaglandin G/H synthase 1 (Homo sapiens, UniProt P23219). In kind it is functional.
Experiment [4] addresses T3, Alpha-1A adrenergic receptor (Homo sapiens, UniProt P35348).
T3 sequence (P35348 whole entry): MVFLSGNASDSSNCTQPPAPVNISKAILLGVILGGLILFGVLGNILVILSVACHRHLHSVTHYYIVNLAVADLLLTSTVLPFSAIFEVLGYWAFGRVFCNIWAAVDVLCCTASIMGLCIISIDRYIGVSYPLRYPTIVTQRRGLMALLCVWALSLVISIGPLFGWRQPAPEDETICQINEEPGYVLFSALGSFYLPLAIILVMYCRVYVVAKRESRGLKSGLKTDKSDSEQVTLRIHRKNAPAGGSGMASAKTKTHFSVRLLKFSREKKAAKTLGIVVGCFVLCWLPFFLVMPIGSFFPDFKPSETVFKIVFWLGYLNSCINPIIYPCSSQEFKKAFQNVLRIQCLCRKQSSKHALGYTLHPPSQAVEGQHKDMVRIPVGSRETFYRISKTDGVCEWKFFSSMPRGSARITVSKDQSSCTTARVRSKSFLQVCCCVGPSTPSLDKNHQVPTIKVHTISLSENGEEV
In kind it is functional, cell-based.

Experiment [5] has as its target cGMP-inhibited 3',5'-cyclic phosphodiesterase 3A (Homo sapiens, UniProt Q14432). Type of experiment: functional.
For experiment [6], the target named is 5-hydroxytryptamine receptor 2B (Homo sapiens, UniProt P41595). In kind it is functional, cell-based.
Chain of 5-hydroxytryptamine receptor 2B (P41595 whole entry): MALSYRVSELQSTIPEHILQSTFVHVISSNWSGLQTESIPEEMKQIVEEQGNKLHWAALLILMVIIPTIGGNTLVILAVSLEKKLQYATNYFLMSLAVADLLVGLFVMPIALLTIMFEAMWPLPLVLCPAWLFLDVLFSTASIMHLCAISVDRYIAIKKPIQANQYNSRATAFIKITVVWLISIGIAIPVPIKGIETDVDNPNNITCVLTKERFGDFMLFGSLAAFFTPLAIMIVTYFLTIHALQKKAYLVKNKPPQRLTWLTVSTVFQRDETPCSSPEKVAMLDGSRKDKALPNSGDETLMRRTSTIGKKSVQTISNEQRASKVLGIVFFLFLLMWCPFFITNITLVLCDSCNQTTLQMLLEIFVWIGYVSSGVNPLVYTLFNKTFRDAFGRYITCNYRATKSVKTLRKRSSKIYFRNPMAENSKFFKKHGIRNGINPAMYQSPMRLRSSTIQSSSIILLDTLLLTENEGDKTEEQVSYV
Experiment [7] addresses T2, Prostaglandin G/H synthase 1. Type of experiment: functional. This is another data set of the same source.
For experiment [8], the target named is Sodium-dependent noradrenaline transporter (Homo sapiens, UniProt P23975).
Chain of Sodium-dependent noradrenaline transporter (P23975 whole entry): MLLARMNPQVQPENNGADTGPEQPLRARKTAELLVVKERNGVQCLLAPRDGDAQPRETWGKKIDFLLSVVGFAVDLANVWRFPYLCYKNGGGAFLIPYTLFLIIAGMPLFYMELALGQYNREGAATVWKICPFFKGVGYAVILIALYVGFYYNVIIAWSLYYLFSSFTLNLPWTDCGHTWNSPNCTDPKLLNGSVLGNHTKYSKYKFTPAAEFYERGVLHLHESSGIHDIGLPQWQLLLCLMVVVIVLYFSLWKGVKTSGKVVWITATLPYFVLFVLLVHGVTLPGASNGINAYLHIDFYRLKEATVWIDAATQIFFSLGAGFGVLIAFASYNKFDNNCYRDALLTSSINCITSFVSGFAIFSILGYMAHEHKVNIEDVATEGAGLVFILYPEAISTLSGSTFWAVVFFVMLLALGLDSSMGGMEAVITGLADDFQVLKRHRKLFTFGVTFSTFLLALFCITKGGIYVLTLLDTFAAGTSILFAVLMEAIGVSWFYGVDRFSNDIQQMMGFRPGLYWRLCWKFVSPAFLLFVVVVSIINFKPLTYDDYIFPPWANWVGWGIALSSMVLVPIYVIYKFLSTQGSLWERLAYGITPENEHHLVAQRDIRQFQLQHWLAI
Experiment [9] has as its target T4, Amine oxidase [flavin-containing] A (Homo sapiens, UniProt P21397).
T4 sequence (P21397 whole entry): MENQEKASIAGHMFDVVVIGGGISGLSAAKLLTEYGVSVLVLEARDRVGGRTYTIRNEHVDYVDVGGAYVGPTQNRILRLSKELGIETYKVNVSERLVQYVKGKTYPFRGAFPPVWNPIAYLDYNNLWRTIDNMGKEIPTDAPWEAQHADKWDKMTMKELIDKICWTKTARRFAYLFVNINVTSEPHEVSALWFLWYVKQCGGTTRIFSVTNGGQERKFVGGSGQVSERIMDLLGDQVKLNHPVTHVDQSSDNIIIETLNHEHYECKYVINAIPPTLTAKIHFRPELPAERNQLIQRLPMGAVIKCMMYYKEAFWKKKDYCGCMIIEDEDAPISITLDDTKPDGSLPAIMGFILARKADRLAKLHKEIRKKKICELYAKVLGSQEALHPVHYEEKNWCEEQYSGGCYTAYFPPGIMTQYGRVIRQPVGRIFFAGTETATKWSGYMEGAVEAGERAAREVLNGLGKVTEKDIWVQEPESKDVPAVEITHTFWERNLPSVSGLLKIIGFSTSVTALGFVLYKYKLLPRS
Type of experiment: functional.

A further experiment has as its target T5, Progesterone receptor (Homo sapiens, UniProt P06401).
T5 sequence (P06401 whole entry): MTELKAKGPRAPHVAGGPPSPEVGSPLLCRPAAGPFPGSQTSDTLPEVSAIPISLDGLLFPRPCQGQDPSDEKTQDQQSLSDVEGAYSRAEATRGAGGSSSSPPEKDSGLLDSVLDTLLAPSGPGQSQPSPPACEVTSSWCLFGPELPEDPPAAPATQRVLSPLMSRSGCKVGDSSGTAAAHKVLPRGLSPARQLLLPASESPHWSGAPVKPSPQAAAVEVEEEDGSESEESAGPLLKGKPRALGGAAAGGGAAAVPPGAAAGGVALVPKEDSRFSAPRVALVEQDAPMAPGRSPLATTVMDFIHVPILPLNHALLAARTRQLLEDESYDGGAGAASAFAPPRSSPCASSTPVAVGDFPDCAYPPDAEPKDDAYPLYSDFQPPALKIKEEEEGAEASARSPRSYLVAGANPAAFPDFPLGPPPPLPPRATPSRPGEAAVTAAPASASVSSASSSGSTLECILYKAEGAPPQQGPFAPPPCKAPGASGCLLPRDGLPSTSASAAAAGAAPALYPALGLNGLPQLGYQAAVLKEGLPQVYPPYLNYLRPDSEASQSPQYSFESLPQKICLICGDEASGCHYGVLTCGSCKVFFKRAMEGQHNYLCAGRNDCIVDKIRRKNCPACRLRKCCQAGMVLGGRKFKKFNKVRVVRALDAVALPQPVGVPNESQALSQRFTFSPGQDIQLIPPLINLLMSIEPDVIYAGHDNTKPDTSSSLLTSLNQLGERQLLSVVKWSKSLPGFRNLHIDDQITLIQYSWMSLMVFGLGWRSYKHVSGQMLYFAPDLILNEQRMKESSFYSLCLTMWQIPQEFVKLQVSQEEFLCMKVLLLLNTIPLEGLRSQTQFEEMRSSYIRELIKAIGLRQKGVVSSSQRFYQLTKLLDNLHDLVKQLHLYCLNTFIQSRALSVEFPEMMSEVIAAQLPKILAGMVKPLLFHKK
Also: assay procedure not described here.

Chain of Sodium-dependent serotonin transporter (P31645 whole entry): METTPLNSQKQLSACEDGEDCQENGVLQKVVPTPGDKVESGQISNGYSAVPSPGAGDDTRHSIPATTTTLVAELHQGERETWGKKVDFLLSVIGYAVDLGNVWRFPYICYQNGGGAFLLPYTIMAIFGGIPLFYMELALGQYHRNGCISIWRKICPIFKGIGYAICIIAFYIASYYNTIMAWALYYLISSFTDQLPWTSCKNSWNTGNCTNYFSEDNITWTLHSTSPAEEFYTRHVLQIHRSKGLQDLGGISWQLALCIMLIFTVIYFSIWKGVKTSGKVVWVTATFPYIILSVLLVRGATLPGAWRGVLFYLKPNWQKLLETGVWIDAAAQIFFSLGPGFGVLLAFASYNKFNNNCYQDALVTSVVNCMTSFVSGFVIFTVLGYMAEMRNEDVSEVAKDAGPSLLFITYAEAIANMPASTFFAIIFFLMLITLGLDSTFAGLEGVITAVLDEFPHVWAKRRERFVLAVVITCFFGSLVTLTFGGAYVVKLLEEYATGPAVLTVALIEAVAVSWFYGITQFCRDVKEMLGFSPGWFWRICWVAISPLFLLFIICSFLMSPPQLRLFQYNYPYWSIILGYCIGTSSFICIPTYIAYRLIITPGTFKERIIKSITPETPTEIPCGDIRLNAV
Chain of D(1A) dopamine receptor (P21728 whole entry): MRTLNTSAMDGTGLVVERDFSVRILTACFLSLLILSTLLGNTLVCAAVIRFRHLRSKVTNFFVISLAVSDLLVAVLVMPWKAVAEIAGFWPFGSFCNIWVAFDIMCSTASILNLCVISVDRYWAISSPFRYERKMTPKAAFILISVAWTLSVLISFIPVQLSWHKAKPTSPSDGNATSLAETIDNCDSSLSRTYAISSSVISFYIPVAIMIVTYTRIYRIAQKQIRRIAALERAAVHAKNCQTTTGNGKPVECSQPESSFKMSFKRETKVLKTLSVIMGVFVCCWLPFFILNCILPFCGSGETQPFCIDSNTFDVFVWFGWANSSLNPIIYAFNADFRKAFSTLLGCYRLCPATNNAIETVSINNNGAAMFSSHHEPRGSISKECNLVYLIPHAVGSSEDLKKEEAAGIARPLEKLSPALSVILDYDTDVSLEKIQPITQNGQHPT
Chain of cGMP-inhibited 3',5'-cyclic phosphodiesterase 3A (Q14432 whole entry): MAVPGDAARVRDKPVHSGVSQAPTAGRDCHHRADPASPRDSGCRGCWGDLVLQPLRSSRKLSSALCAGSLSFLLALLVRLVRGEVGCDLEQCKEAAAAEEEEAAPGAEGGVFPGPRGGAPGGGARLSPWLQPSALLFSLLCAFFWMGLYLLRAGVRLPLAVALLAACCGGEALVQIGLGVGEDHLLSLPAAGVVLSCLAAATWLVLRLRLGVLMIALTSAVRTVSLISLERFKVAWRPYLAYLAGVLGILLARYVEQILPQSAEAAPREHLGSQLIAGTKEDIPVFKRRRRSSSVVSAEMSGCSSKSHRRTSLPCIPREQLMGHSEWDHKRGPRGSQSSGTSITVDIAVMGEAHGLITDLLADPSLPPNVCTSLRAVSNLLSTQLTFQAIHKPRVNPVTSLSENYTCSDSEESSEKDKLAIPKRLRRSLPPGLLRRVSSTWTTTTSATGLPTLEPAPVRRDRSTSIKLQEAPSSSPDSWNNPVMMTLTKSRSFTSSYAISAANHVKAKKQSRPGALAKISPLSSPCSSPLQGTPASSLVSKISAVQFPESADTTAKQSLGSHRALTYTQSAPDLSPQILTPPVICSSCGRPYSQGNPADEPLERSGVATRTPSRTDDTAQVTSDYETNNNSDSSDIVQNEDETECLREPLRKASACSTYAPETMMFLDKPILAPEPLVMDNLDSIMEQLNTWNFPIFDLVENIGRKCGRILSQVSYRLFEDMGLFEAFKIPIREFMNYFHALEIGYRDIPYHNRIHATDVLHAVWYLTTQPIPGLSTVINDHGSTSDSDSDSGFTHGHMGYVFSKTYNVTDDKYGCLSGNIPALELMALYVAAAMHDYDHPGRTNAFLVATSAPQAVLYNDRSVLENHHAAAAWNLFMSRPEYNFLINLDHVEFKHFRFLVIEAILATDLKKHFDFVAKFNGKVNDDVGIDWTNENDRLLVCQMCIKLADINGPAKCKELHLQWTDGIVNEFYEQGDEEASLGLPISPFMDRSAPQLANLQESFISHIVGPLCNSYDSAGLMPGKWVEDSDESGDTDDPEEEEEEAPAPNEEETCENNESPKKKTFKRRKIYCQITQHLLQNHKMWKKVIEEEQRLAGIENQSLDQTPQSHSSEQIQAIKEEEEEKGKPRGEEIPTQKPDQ
T2 sequence (P23219 whole entry): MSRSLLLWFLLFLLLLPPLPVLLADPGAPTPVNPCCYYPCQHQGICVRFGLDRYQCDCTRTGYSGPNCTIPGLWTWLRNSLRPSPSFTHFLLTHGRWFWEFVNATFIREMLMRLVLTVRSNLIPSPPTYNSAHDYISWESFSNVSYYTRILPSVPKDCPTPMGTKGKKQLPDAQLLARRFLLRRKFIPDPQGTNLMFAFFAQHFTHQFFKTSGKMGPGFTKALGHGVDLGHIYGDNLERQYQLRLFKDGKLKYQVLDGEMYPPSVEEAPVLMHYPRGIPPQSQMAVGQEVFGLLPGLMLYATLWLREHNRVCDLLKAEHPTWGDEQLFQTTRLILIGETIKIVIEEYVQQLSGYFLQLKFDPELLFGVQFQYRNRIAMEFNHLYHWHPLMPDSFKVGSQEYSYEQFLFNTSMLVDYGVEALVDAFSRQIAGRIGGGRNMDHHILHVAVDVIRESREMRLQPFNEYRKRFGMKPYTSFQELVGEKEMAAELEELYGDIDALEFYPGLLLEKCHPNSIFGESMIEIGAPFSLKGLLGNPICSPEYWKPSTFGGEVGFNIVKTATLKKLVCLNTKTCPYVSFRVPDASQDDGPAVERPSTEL
Chain of Histamine H3 receptor (Q9Y5N1 whole entry): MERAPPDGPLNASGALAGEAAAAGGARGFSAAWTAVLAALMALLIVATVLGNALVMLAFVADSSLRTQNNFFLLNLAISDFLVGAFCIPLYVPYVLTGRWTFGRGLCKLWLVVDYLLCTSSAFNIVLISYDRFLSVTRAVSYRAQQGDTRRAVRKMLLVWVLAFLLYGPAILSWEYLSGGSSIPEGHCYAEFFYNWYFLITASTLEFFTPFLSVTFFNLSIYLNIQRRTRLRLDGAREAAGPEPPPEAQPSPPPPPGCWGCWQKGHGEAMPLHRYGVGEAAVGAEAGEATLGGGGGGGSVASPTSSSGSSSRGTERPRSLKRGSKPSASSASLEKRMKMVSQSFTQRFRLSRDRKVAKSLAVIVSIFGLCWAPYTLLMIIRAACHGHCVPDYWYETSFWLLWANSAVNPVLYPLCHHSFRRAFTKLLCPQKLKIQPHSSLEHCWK
Chain of Acetylcholinesterase (P22303 whole entry): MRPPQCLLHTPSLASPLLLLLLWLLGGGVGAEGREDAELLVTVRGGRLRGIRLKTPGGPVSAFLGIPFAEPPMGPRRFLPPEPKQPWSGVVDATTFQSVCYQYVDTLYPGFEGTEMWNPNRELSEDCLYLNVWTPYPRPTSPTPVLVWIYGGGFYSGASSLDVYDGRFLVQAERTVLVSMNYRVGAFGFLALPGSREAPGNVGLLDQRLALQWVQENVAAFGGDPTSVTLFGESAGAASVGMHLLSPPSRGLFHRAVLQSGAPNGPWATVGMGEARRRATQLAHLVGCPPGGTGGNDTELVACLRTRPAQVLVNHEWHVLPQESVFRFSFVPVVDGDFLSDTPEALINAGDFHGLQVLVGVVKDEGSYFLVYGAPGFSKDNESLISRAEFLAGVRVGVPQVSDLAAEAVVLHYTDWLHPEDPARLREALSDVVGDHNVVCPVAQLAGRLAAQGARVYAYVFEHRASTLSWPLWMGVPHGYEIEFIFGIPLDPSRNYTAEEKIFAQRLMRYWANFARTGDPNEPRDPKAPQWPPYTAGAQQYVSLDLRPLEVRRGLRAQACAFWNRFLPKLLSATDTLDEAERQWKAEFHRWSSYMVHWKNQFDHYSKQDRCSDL

A word on the AC50: it is the concentration at which the activity in the assay is half-maximal. A low value points to activity at low concentration. With `CCC(C)(C)c1ccc(CC(C)CN2C[C@@H](C)O[C@@H](C)C2)cc1` (stereo not given in full) [AMOROLFINE], the concentration at half-maximal activity (AC50) in experiment [1] was over 30 µM; in experiment [2] it was over 30 µM; on Adenosine receptor A3, 12.1 µM; on D(1A) dopamine receptor, over 30 µM; at Acetylcholinesterase, over 30 µM; in experiment [3], over 30 µM. Besides, the AC50 (at Histamine H3 receptor; on Mu-type opioid receptor; in experiment [4]; in [5]; in [6]; in experiment [7]) was over 30 µM each time. For the same compound, the AC50 (in experiment [8]; in experiment [9]; on Progesterone receptor) was over 30 µM throughout.

Take `N=c1ccn2c(n1)O[C@H]1[C@H](O)[C@@H](CO)O[C@H]12` [ANCITABINE]: the half-maximal activity concentration (AC50) (in [1]; in [2]; at Adenosine receptor A3; on D(1A) dopamine receptor; at Acetylcholinesterase; in experiment [3]) was over 30 µM throughout. Moreover, the half-maximal activity concentration (AC50) (on Histamine H3 receptor; on Mu-type opioid receptor; in experiment [4]; in experiment [5]; in [6]; in experiment [7]) was over 30 µM each time. In addition, the AC50 (in experiment [8]; in [9]; on Progesterone receptor) was over 30 µM each time.

As to `CCCNC(C)C(=O)Nc1c(C)csc1C(=O)OC` (stereo not given) [ARTICAINE], the AC50 (in experiment [1]; in experiment [2]; at Adenosine receptor A3; on D(1A) dopamine receptor; at Acetylcholinesterase; in [3]) was over 30 µM each time. In addition, the AC50 (at Histamine H3 receptor; on Mu-type opioid receptor; in experiment [4]; in experiment [5]; in experiment [6]; in experiment [7]) was over 30 µM each time. Moreover, the concentration at half-maximal activity (AC50) (in experiment [8]; in experiment [9]; on Progesterone receptor) was over 30 µM each time.

In the case of `NC(=O)C[C@H](N)C(=O)O` [ASPARAGINE], the concentration at half-maximal activity (AC50) (in experiment [1]; in experiment [2]; on Adenosine receptor A3; at D(1A) dopamine receptor; on Acetylcholinesterase; in experiment [3]) was over 30 µM in each case. Also, the AC50 (at Histamine H3 receptor; on Mu-type opioid receptor; in experiment [4]; in [5]; in experiment [6]; in [7]) was over 30 µM each time. Further, the AC50 (in experiment [8]; in experiment [9]; on Progesterone receptor) was over 30 µM each time.

With `CC1=C(/C=C/C(C)=C/C=C/C(C)=C/C=C/C=C(C)/C=C/C=C(C)/C=C/C2=C(C)CCCC2(C)C)C(C)(C)CCC1` [BETA CAROTENE], the AC50 is over 30 µM in experiment [1]; over 30 µM in experiment [2]; over 30 µM on Adenosine receptor A3; over 30 µM at D(1A) dopamine receptor; over 30 µM on Acetylcholinesterase; 5.22 µM in experiment [3]. The AC50 at Histamine H3 receptor was over 30 µM; at Mu-type opioid receptor, over 30 µM; in [4], over 30 µM; in [5] it was over 30 µM; in experiment [6], over 30 µM; in [7], 8.1 µM. Further, the AC50 (in experiment [8]; in experiment [9]; on Progesterone receptor) was over 30 µM each time.

As for `CC(C)(C)N1CCC(c2ccccc2)(c2ccccc2)CC1` [BUDIPINE], the AC50 (in experiment [1]; in experiment [2]; on Adenosine receptor A3; on D(1A) dopamine receptor; on Acetylcholinesterase; in [3]) was over 30 µM each time. The half-maximal activity concentration (AC50) is over 30 µM on Histamine H3 receptor; 12.6 µM on Mu-type opioid receptor; over 30 µM in experiment [4]; over 30 µM in experiment [5]; over 30 µM in [6]; over 30 µM in [7]. Moreover, the AC50 (in experiment [8]; in experiment [9]; at Progesterone receptor) was over 30 µM each time.

Turning to `C=CCN1C[C@H](C(=O)N(CCCN(C)C)C(=O)NCC)C[C@@H]2c3cccc4[nH]cc(c34)C[C@H]21` [CABERGOLINE], the half-maximal activity concentration (AC50) in experiment [1] is over 30 µM; in experiment [2] it was over 30 µM; on Adenosine receptor A3, over 30 µM; at D(1A) dopamine receptor, 0.648 µM; at Acetylcholinesterase, 11.4 µM; in experiment [3], over 30 µM. Further, the AC50 is over 30 µM on Histamine H3 receptor; over 30 µM on Mu-type opioid receptor; 0.142 µM in [4]; over 30 µM in [5]; 0.0032 µM in experiment [6]; over 30 µM in experiment [7]. Besides, the AC50 in experiment [8] was 29.6 µM; in experiment [9], over 30 µM; at Progesterone receptor, over 30 µM.

As to `CC(=O)OCC1=C(C(=O)O)N2C(=O)[C@@H](NC(=O)[C@H](N)c3ccccc3)[C@H]2SC1` [CEPHALOGLYCIN], the AC50 in experiment [1] was over 30 µM; in experiment [2], over 30 µM; at Adenosine receptor A3, over 30 µM; at D(1A) dopamine receptor it was over 30 µM; at Acetylcholinesterase, over 30 µM; in experiment [3] it was 26.5 µM. The AC50 is over 30 µM at Histamine H3 receptor; over 30 µM on Mu-type opioid receptor; over 30 µM in [4]; over 30 µM in experiment [5]; over 30 µM in experiment [6]; 5.93 µM in [7]. In addition, the AC50 (in experiment [8]; in experiment [9]; on Progesterone receptor) was over 30 µM each time.
